Laboratory results published in patent publication US4435583A, “2-Halo-substituted monic acid A useful as antibacterial compounds” (Beecham Group p.l.c., priority 1981, dated 1984).
In brackets after ≈: the same amount, converted by molar mass.

How the values were obtained:
Format in all cases: cell-based
[1] = tested on: Bord. bronchiseptica B08; assay: MIC against veterinary bacteria; details: Bordetella bronchiseptica, B08, 18 h, Diagnostic Sensitivity Test Agar, 37° C., read-out: MIC
Method: (§1) The values were determined using a two fold serial dilutions in Diagnostic Sensitivity Test Agar with an inoculum of 10^4 organisms and incubation for 18 hours at 37° C.

[2] = tested on: Bord. bronchiseptica B09; assay: MIC against veterinary bacteria; details: Bordetella bronchiseptica, B09, 18 h, Diagnostic Sensitivity Test Agar, 37° C., read-out: MIC
Method: as §1

[3] = tested on: Corynebacterium pyogenes CY1; assay: MIC against veterinary bacteria; details: Rhodococcus (subgen. Prescottella) equi, Diagnostic Sensitivity Test Agar, 18 hours, 37° C., read-out: MIC
Method: as §1

[4] = tested on: E. coli E1; assay: MIC against veterinary bacteria; details: Escherichia coli, Diagnostic Sensitivity Test Agar, 18 hours, 37° C., read-out: MIC
Method: as §1

[5] = tested on: E. coli NCTC 10418; assay: MIC against veterinary bacteria; details: Escherichia coli, NCTC10418, Diagnostic Sensitivity Test Agar, 18 hours, 37° C., read-out: MIC
Method: as §1

[6] = tested on: Erysipelothrix rhusiopathiae NCTC 8163; assay: MIC against veterinary bacteria; details: NCTC8163, Diagnostic Sensitivity Test Agar, 18 hours, 37° C., read-out: MIC
Method: as §1

[7] = tested on: Past. haemolytica PA5; assay: MIC against veterinary bacteria; details: Mannheimia haemolytica, PA5, 18 h, Diagnostic Sensitivity Test Agar, 37° C., read-out: MIC
Method: as §1

[8] = tested on: Past. multocida PA1; assay: MIC against veterinary bacteria; details: Pasteurella multocida, PA1, 18 h, Diagnostic Sensitivity Test Agar, 37° C., read-out: MIC
Method: as §1

[9] = tested on: Past. multocida PA2; assay: MIC against veterinary bacteria; details: Pasteurella multocida, PA2, 18 h, Diagnostic Sensitivity Test Agar, 37° C., read-out: MIC
Method: as §1

[10] = tested on: S. dublin S7; assay: MIC against veterinary bacteria; details: Salmonella enterica, Diagnostic Sensitivity Test Agar, 18 hours, 37° C., read-out: MIC
Method: as §1

[11] = tested on: S. typhimurium S18; assay: MIC against veterinary bacteria; details: Salmonella enterica, Diagnostic Sensitivity Test Agar, 18 hours, 37° C., read-out: MIC
Method: as §1

[12] = tested on: Staph. aureus 152; assay: MIC against veterinary bacteria; details: Staphylococcus aureus, 152, 18 h, Diagnostic Sensitivity Test Agar, 37° C., read-out: MIC
Method: as §1

[13] = tested on: Staph. aureus B4; assay: MIC against veterinary bacteria; details: Staphylococcus aureus, B4, 18 h, Diagnostic Sensitivity Test Agar, 37° C., read-out: MIC
Method: as §1

[14] = tested on: Staph. aureus Oxford; assay: MIC against veterinary bacteria; details: Staphylococcus aureus, 18 h, Diagnostic Sensitivity Test Agar, 37° C., read-out: MIC
Method: as §1

[15] = tested on: Strep. agalactiae SPA1; assay: MIC against veterinary bacteria; details: Streptococcus agalactiae, SPA1, 18 h, Diagnostic Sensitivity Test Agar, 37° C., read-out: MIC
Method: as §1

[16] = tested on: Strep. dysgalactiae SPD1; assay: MIC against veterinary bacteria; details: Streptococcus dysgalactiae, SPD1, 18 h, Diagnostic Sensitivity Test Agar, 37° C., read-out: MIC
Method: as §1

[17] = tested on: Strep. suis (group D) SPS11; assay: MIC against veterinary bacteria; details: Streptococcus suis, 18 h, Diagnostic Sensitivity Test Agar, 37° C., read-out: MIC
Method: as §1

[18] = tested on: Strep. uberis SPU1; assay: MIC against veterinary bacteria; details: Streptococcus uberis, SPU1, 18 h
Method: as §1

[19] = tested on: Bacillus subtilis 6633; assay: MIC against human bacteria; details: Bacillus subtilis, 6633, 18 h, nutrient agar, 5% chocolated horse blood, 37° C., read-out: MIC
Method: (§2) The values were determined by serial dilutions in nutrient agar with 5% chocolated horse blood after incubations for 18 hours at 37° C.

[20] = tested on: Corynebacterium xerosis 9755; assay: MIC against human bacteria; details: nutrient agar, 5% chocolated horse blood, 18 hours, 37° C., read-out: MIC
Method: as §2

[21] = tested on: E. coli ESS; assay: MIC against human bacteria; details: Escherichia coli, 18 h, nutrient agar, 5% chocolated horse blood, 37° C., read-out: MIC
Method: as §2

[22] = tested on: E. coli NCTC 10418; assay: MIC against human bacteria; details: Escherichia coli, NCTC10418, nutrient agar, 5% chocolated horse blood, 18 hours, 37° C., read-out: MIC
Method: as §2

[23] = tested on: Haemophilus influenzae Q1; assay: MIC against human bacteria; details: nutrient agar, 5% chocolated horse blood, 18 hours, 37° C., read-out: MIC
Method: as §2

[24] = tested on: K. aerogenes A; assay: MIC against human bacteria; details: Klebsiella aerogenes, nutrient agar, 5% chocolated horse blood, 18 hours, 37° C., read-out: MIC
Method: as §2

[25] = tested on: Neisseria catarrhalis 1502; assay: MIC against human bacteria; details: Neisseria, 1502, 18 h, nutrient agar, 5% chocolated horse blood, 37° C., read-out: MIC
Method: as §2

[26] = tested on: P. mirabilis 889; assay: MIC against human bacteria; details: Proteus mirabilis, nutrient agar, 5% chocolated horse blood, 18 hours, 37° C., read-out: MIC
Method: as §2

[27] = tested on: Past. multocida 1633; assay: MIC against human bacteria; details: Pasteurella multocida, 1633, 18 h, nutrient agar, 5% chocolated horse blood, 37° C., read-out: MIC
Method: as §2

[28] = tested on: Ps. aeruginosa NCTC 10662; assay: MIC against human bacteria; details: Pseudomonas aeruginosa, NCTC10662, nutrient agar, 5% chocolated horse blood, 18 hours, 37° C., read-out: MIC
Method: as §2

[29] = tested on: Sarcina lutea 8340; assay: MIC against human bacteria; details: Micrococcus luteus, nutrient agar, 5% chocolated horse blood, 18 hours, 37° C., read-out: MIC
Method: as §2

[30] = tested on: Staph. aureus Oxford; assay: MIC against human bacteria; details: Staphylococcus aureus, 18 h, nutrient agar, 5% chocolated horse blood, 37° C., read-out: MIC
Method: as §2

[31] = tested on: Staph. aureus Russell; assay: MIC against human bacteria; details: Staphylococcus aureus, 18 h, nutrient agar, 5% chocolated horse blood, 37° C., read-out: MIC
Method: as §2

[32] = tested on: Staph. aureus W2827; assay: MIC against human bacteria; details: Staphylococcus aureus, W2827, 18 h, nutrient agar, 5% chocolated horse blood, 37° C., read-out: MIC
Method: as §2

[33] = tested on: Strep. 2788-B; assay: MIC against human bacteria; details: 18 h, nutrient agar, 5% chocolated horse blood, 37° C., read-out: MIC
Method: as §2

[34] = tested on: Strep. 641848-C; assay: MIC against human bacteria; details: 18 h, nutrient agar, 5% chocolated horse blood, 37° C., read-out: MIC
Method: as §2

[35] = tested on: Strep. faecalis I; assay: MIC against human bacteria; details: Enterococcus faecalis, nutrient agar, 5% chocolated horse blood, 18 hours, 37° C., read-out: MIC
Method: as §2

[36] = tested on: Strep. pneumoniae CN33; assay: MIC against human bacteria; details: Streptococcus pneumoniae, CN33, 18 h, nutrient agar, 5% chocolated horse blood, 37° C., read-out: MIC
Method: as §2

[37] = tested on: Strep. pyrogenes R80/421-A; assay: MIC against human bacteria; details: 18 h, nutrient agar, 5% chocolated horse blood, 37° C., read-out: MIC
Method: as §2

SMILES: CC(CC1OCC(CC2OC2C(C)C(C)O)C(O)C1O)=C(F)C(=O)OCc1cccc([N+](=O)[O-])c1 [Example 4, 3-Nitrobenzyl 4-[5S-(2S,3S-epoxy-5S-hydroxy-4S-methylhexyl)-3R,4R-dihydroxytetrahydropyran-2S-yl]-2-fluoro-3-methylbut-2(Z)-enoate]
- MIC [1]: 80 mg/L (≈ 161 µM)
- MIC [2]: 10 mg/L (≈ 20.1 µM)
- MIC [3]: 80 mg/L (≈ 161 µM)
- MIC [4]: > 80 mg/L
- MIC [5]: > 80 mg/L
- MIC [6]: 80 mg/L (≈ 161 µM)
- MIC [7]: 10 mg/L (≈ 20.1 µM)
- MIC [8]: 0.625 mg/L (≈ 1.26 µM)
- MIC [9]: 0.312 mg/L (≈ 0.627 µM)
- MIC [10]: > 80 mg/L
- MIC [11]: > 80 mg/L
- MIC [12]: 1.25 mg/L (≈ 2.51 µM)
- MIC [13]: 2.5 mg/L (≈ 5.02 µM)
- MIC [14]: 1.25 mg/L (≈ 2.51 µM)
- MIC [15]: 1.25 mg/L (≈ 2.51 µM)
- MIC [16]: 0.312 mg/L (≈ 0.627 µM)
- MIC [17]: 5 mg/L (≈ 10 µM)
- MIC [18]: 0.156 mg/L (≈ 0.314 µM)
- MIC [19]: 0.5 mg/L (≈ 1 µM)
- MIC [20]: > 100 mg/L
- MIC [21]: 1 mg/L (≈ 2.01 µM)
- MIC [22]: > 100 mg/L
- MIC [23]: 0.5 mg/L (≈ 1 µM)
- MIC [24]: > 100 mg/L
- MIC [25]: 0.5 mg/L (≈ 1 µM)
- MIC [26]: > 100 mg/L
- MIC [27]: 2.5 mg/L (≈ 5.02 µM)
- MIC [28]: > 100 mg/L
- MIC [29]: > 100 mg/L
- MIC [30]: 2.5 mg/L (≈ 5.02 µM)
- MIC [31]: 2.5 mg/L (≈ 5.02 µM)
- MIC [32]: 2.5 mg/L (≈ 5.02 µM)
- MIC [33]: 2.5 mg/L (≈ 5.02 µM)
- MIC [34]: 0.5 mg/L (≈ 1 µM)
- MIC [35]: > 100 mg/L
- MIC [36]: 0.5 mg/L (≈ 1 µM)
- MIC [37]: 0.5 mg/L (≈ 1 µM)
